From ChEMBL document CHEMBL5257048, “Embellicines C-E: Macrocyclic Alkaloids with a Cyclopenta[b]fluorene Ring System from the Fungus Sarocladium sp” (J Nat Prod, 2023)

Columns and labels:
Assay type in all cases: functional, cell-based
OVCAR-3 = assay: Cytotoxicity against human OVCAR-3 cells assessed as inhibition of cell growth incubated for 72 hrs by MTT assay; settings: OVCAR-3, 72 h
MDA-MB-435 = assay: Cytotoxicity against human MDA-MB-435 cells assessed as inhibition of cell growth incubated for 72 hrs by MTT assay; settings: MDA-MB-435, 72 h
MDA-MB-231 = assay: Cytotoxicity against human MDA-MB-231 cells assessed as inhibition of cell growth incubated for 72 hrs by MTT assay; settings: MDA-MB-231, 72 h

SMILES | IC50 (OVCAR-3) | IC50 (MDA-MB-435) | IC50 (MDA-MB-231)
CC1=C[C@]2(C)C(=C(C)[C@@H]3[C@@H]4C[C@H](C)C[C@H](C)[C@H]4[C@H]4Oc5ccc(cc5)C[C@@]5(O)C=C(C(=O)N5)C(=O)[C@H]2[C@@H]43)[C@@H]1C | 1.6 µM | 1.5 µM | 0.4 µM
CC1=C[C@]2(C)C(=C(C)[C@@H]3[C@@H]4C[C@H](C)C[C@H](C)[C@H]4[C@H]4Oc5ccc(cc5)C[C@]5(O)NC(=O)[C@]6(O[C@H]65)C(=O)[C@H]2[C@@H]43)[C@@H]1C | 21 µM | 17 µM | 4.8 µM
CC1=C[C@]2(C)C(=C(C)[C@@H]3[C@@H]4C[C@H](C)C[C@H](C)[C@H]4[C@H]4Oc5ccc(cc5)CC(=O)[C@@H]5O[C@@]5(C(N)=O)C(=O)[C@H]2[C@@H]43)[C@@H]1C | 24 µM | 18 µM | 3.2 µM
CC(=O)O[C@]12Cc3ccc(cc3)O[C@@H]3[C@H]4[C@@H](C[C@H](C)C[C@@H]4C)[C@H]4C(C)=C5[C@H](C)C(C)=C[C@@]5(C)[C@@H](C(=O)[C@@]5(O[C@H]51)C(=O)N2)[C@@H]34 | 20 µM | 20 µM | 4.4 µM
CO[C@@H]1/C2=C(\O)[C@H]3[C@H]4[C@H](Oc5ccc(cc5)C[C@]1(O)NC2=O)[C@H]1[C@@H](C[C@H](C)C[C@@H]1C)[C@H]4C(C)=C1[C@H](C)C(C)=C[C@]13C | 1 µM | 1.8 µM | 0.4 µM
